For one data set, the system named is aspirin-induced ulcer. The data set is described as follows: Antiulcer activity against aspirin-induced ulcer model. The format is in vivo, Wistar strain male rats. To be noted: 100 mg/kg oral, 30 min before aspirin 200 mg/kg oral; for Ulcer index: stomach excised 7 hours after aspirin, rats fasted 24 hours; for Inhibition rate: versus control group. The method, then:
Antiulcer activity against aspirin-induced ulcer model
A suspension of each test compound in 5% gum arabic aqueous solution was orally given to Wistar strain male rats (at the age of 7 to 8 weeks, weighing 180 to 227 g; 7-8 rats in the group administered with the test compound; 14-16 rats in the control group) fasted for 24 hours at a dose of 100 mg of the test compound/5 ml/kg. Thirty minutes after administration, aspirin was further orally administered at a dose of 200 mg/kg. Seven hours after administration of aspirin, stomach was excised under ethereal anesthesia and spotted and linear erosion and a long diameter of ulcer were microscopically measured to determine an ulcer index and an inhibition rate.
(§1) In the control group, 5% gum arabic aqueous solution was orally administered at a dose of 5 ml/kg.

Data set [1] deals with water-immersion stress ulcer. The data set is described as follows: Antiulcer activity against water-immersion stress ulcer model. The format is in vivo, Wistar strain male rats. To be noted: 100 mg/kg oral; for Ulcer index: 30 min before water immersion at 22 ± 1°C, stress load for 6 hours; for Inhibition rate: 30 min before water immersion stress for 6 hours, versus control group. The method, then: Antiulcer activity against water-immersion stress ulcer model
A suspension of each test compound in 5% gum arabic aqueous solution was orally given to Wistar strain male rats (at the age of 7 to 8 weeks, weighing 191 to 238 g; 7-8 rats in the group administered with the test compound; 14-16 rats in the control group) fasted for 24 hours at a dose of 100 mg of the test compound/5 ml/kg. Thirty minutes after administration, the animal was immersed up to the xiphisternum in water bath at 22 ± 1°C using a stress cage made by Tokyo University, Faculty of Pharmacology to apply a stress load for 6 hours. After applying the stress load, the rats had the cervical vertebra dislocated to death. Then, the stomach was excised and, spotted and linear erosion and a long diameter of ulcer were microscopically measured to determine an ulcer index and an inhibition rate.
as §1

The next data set relates to ethanol-induced ulcer. The data set is described as follows: Antiulcer activity against ethanol-induced ulcer model. To be noted: 100 mg/kg oral; for Ulcer index: 30 min before absolute ethanol 5 ml/kg oral, 1 hour after ethanol; for Inhibition rate: versus control group. The format is in vivo, Wistar strain male rats. The method, then:
Antiulcer activity against ethanol-induced ulcer model
A suspension of each test compound in 5% gum arabic aqueous solution was orally given to Wistar strain male rats (at the age of 7 to 8 weeks, weighing 180 to 250 g; 5-9 rats in the group administered with the test compound; 4-9 rats in the control group) fasted for 24 hours at a dose of 100 mg of the test compound/5 ml/kg. Thirty minutes after administration, absolute ethanol was further orally administered at a dose of 5 mℓ/kg. One hour after administration of absolute ethanol, the stomach was excised under ethereal anesthesia and the area of an ulcerated portion (mm²) (using microscope) or the proportion (%) thereof to all area of gastric wall (by computer image analysis) were measured to determine an ulcer index and an inhibition rate.
as §1

Another data set relates to gastric juice secretion. The data set is described as follows: Gastric juice secretion inhibition activity (pyloric ligature). The following applies: 100 mg/kg oral; for Gastric juice (pH) / Free HCℓ / Pepsin output / Total acidity: four hours after; for Free HCℓ: Töpfer reagent; for Pepsin output: casein as substrate; for Total acidity: phenolphthalein reagent; for Gastric juice: gastric juice collected four hours after. The format is in vivo, Wistar strain male rats. The procedure:
Gastric juice secretion inhibition activity
A suspension of each test compound in 5% gum arabic aqueous solution was orally given to Wistar strain male rats (at the age of 7 to 8 weeks, weighing 192 to 241 g; 7-9 rats in the group administered with the test compound; 15 rats in the control group) fasted for 24 hours at a dose of 100 mg of the test compound/5 ml/kg. Thirty minutes after administration (the compounds of Examples 3 and 4) or 60 minutes after administration (the compounds of Examples 1, 2, 5, 6 and 7), pyloric ligature was made under ethereal anesthesia. Four hours after, the stomach was excised under ethereal anesthesia to collect gastric juice. The collected gastric juice was centrifuged (2500 rpm) at 4°C for 10 minutes. After the supernatant was collected, an amount of the gastric juice and its pH were measured using a pH meter. Furthermore, an amount of free hydrochloric acid and the total acidity were measured with Töpfer reagent and phenolphthalein reagent, respectively. Using a part of the gastric juice, pepsin output in the gastric juice was measured using casein as substrate in a manner similar to the method of Anson et al.
as §1

Data set [2] deals with SLC-ICR or SLC-ddy strain male mice. As to the kind of experiment: Acute toxicity. The format is in vivo. To be noted: oral, once, observed for 7 days. The procedure:
A suspension of each test compound in 5% gum arabic aqueous solution was orally given to SLC-ICR or SLC-ddy strain male mice (at the age of 6 to 7 weeks, weighing 26.6 to 33.6 g; 3-8 mice in one group) forcedly once at a dose of 500 mg and 1,000mg of the test compound/5mℓ/kg. For 7 days after the administration, the mice were observed whether they were dead or alive.

[3] abbreviates: area of ulcerated portion (microscope).
[4] abbreviates: pyloric ligature 30 minutes after administration.
Where [5] appears, read: pyloric ligature 60 minutes after administration.
Where [6] appears, read: proportion of ulcerated area to all area of gastric wall (computer image analysis).

Structures are written as SMILES.

With `CCCC(O)c1c(C)nc2sccn12` (centres unmarked) [Ex. 4, 5-(1-hydroxybutyl)-6-methylimidazo[2,1-b]-thiazole], in the data set with aspirin-induced ulcer, the Ulcer index is recorded as 41.3 ± 3.8 mm and the Inhibition rate worked out at 38.2%. Also, in data set [1], the Ulcer index is given as 7.4 ± 1.5 mm and the Inhibition rate stood at 68.2%. Also, the Ulcer index with ethanol-induced ulcer (setting [3]) is recorded as 9.2 ± 3.1^** mm^2. In the data set with ethanol-induced ulcer (from ulcer index in mm^2), this compound registered an Inhibition rate of 94.2%. In the data set on gastric juice secretion (setting [4]), the “Gastric juice (pH)” value is 2.54 ± 0.27 pH, the “Free HCℓ” value is 14.3 ± 7.4 mEq/l, the Pepsin output is reported as 83.1 ± 19.4 units/hr and the Total acidity is recorded as 68.8 ± 3.6 mEq/l. The Gastric juice in the data set on gastric juice secretion (setting [4]) is 3.6 ± 0.8 mL. Also, the “Mortality rate (No. of death/No. of treated)” value in data set [2] (500 mg/kg) is on record as 3/8. In data set [2] (1000 mg/kg), the “Mortality rate (No. of death/No. of treated)” value is given as 5/5.
In the data set on aspirin-induced ulcer, `CCCCc1sc2nc(C)c(C(O)c3ccccc3)n2c1C` (centres unmarked) [Ex. 7, 2-butyl-3,6-dimethyl-5-(hydroxy-phenyl)-methylimidazo[2,1-b]-thiazole] came in with a Ulcer index of 65.1 ± 8.5 mm and an Inhibition rate of 8.2%. The same compound gave a Ulcer index in data set [1] of 25.5 ± 5.5 mm. Besides, in the data set with gastric juice secretion (setting [5]), the “Gastric juice (pH)” value is 1.13 ± 0.03 pH, the “Free HCℓ” value was 220.6 ± 32.5 mcEq/100g, the Pepsin output is 27.2 ± 2.3 mg of tyrosine/100g and the Total acidity was 260.5 ± 32.9 mcEq/100g. This compound also gave a Gastric juice in the data set with gastric juice secretion (setting [5]) of 2.91 ± 0.29 mℓ/100g. Moreover, the “Mortality rate (No. of death/No. of treated)” value in data set [2] (500 mg/kg) is given as 0/5. Also, the “Mortality rate (No. of death/No. of treated)” value in data set [2] (1000 mg/kg) is 0/5.
For `Cc1nc2scc(C)n2c1C(O)c1ccccc1` (centres unmarked) [Ex. 8, 3,6-dimethyl-5-(hydroxy-phenyl)-methylimidazo[2,1-b]-thiazole], the Ulcer index in data set [1] was 2.8 ± 0.5 mm; in the data set on ethanol-induced ulcer (setting [3]) it was 15.3 ± 8.5^** mm^2. For the same compound, the Inhibition rate came out at 82.0% in data set [1] and 82.2% with ethanol-induced ulcer (from ulcer index in mm^2).
On to `Cc1ccc(C(O)c2c(C)nc3sccn23)cc1` (centres unmarked) [Ex. 9, 5-{hydroxy-(4-methylphenyl)}methyl-6-methylimidazo[2,1-b]thiazole], for which, in the data set on ethanol-induced ulcer (setting [6]), the Ulcer index stood at 6.8 ± 1.5 %. This compound displayed an Inhibition rate in the data set with ethanol-induced ulcer (from ulcer index in %) of 59.8%.
The corresponding values for `COc1ccc(C(O)c2c(C)nc3sccn23)cc1OC` (centres unmarked) [Ex. 10, 5-{hydroxy-(3,4-dimethoxyphenyl)}-methyl-6-methyl-imidazo[2,1-b]thiazole] are 2.7 ± 0.9 % and 84.0%.
Turning to `Cc1nc2sccn2c1C(O)c1ccc(F)cc1` (centres unmarked) [Ex. 11, 5-{hydroxy-(4-fluorophenyl)}methyl-6-methylimidazo[2,1-b]thiazole], the Ulcer index with ethanol-induced ulcer (setting [6]) is reported as 1.2 ± 0.5 %. The Inhibition rate in the data set on ethanol-induced ulcer (from ulcer index in %) worked out at 92.9%.
As for `Cc1nc2scc(C)n2c1C(O)c1ccc(F)cc1` (centres unmarked) [Ex. 12, 3,6-dimethyl-5-{hydroxy-(4-fluorophenyl)}-methylimidazo[2,1-b]-thiazole], in the data set on ethanol-induced ulcer (setting [6]), the Ulcer index was 6.3 ± 1.3 %. For the same compound, in the data set on ethanol-induced ulcer (from ulcer index in %), the Inhibition rate is reported as 62.7%.

Source of the values: patent EP0463212A1, “Imidazo[2,1-b]thiazole compound anti-ulcer agent containing the same” (NIKKEN CHEMICALS CO., LTD., priority 1990, dated 1992).
